Experimental data as given in PubChem BioAssay (NCI).
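How tested: cells in 96-well plates exposed to compound for 48 hours at five concentrations. GI50 is the concentration that inhibits growth by half. TGI: concentration producing complete growth inhibition.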

How the values were obtained:
Assay in all cases: growth of human tumour cells (NCI), 48 h
786-0 renal = test system: 786-0 renal
MDA-MB-231 breast = test system: MDA-MB-231 breast
HOP-92 NSCLC = test system: HOP-92 NSCLC
SNB-19 CNS = test system: SNB-19 CNS
MALME-3M melanoma = test system: MALME-3M melanoma
T-47D breast = test system: T-47D breast
SK-MEL-5 melanoma = test system: SK-MEL-5 melanoma
UO-31 renal = test system: UO-31 renal
LOX IMVI melanoma = test system: LOX IMVI melanoma
SN12C renal = test system: SN12C renal

| SMILES | TGI (786-0 renal) [µM] | TGI (MDA-MB-231 breast) [µM] | TGI (HOP-92 NSCLC) [µM] | TGI (SNB-19 CNS) [µM] | TGI (MALME-3M melanoma) [µM] | TGI (T-47D breast) [µM] | TGI (SK-MEL-5 melanoma) [µM] | TGI (UO-31 renal) [µM] | TGI (LOX IMVI melanoma) [µM] | TGI (SN12C renal) [µM] | GI50 (786-0 renal) [µM] | GI50 (MDA-MB-231 breast) [µM] | GI50 (HOP-92 NSCLC) [µM] | GI50 (SNB-19 CNS) [µM] | GI50 (MALME-3M melanoma) [µM] | GI50 (T-47D breast) [µM] | GI50 (SK-MEL-5 melanoma) [µM] | GI50 (UO-31 renal) [µM] | GI50 (LOX IMVI melanoma) [µM] | GI50 (SN12C renal) [µM] |
| --- | --- | --- | --- | --- | --- | --- | --- | --- | --- | --- | --- | --- | --- | --- | --- | --- | --- | --- | --- | --- |
| S=C(Nc1ccccc1)N(Cc1ccccc1)c1ccccc1 | > 100 | > 100 | > 100 | > 100 | 37.2 | > 100 | 28.5 | > 100 | > 100 | > 100 | – | – | – | – | – | – | – | – | – | – |
| NCCCCN(Cc1nc2ccccc2[nH]1)[C@H]1CCCc2cccnc21 | > 77.1 | 56.3 | 27.1 | > 100 | 28.2 | > 100 | 27.8 | > 72.7 | 38.2 | > 100 | 21.2 | 8.88 | 2.12 | 26.9 | 13.2 | 21.4 | 14.5 | 12 | 12 | 14.9 |
| COc1ccc2nc(C)cc(Nc3ccccc3O)c2c1 | 42.1 | > 100 | 61.2 | > 100 | 61.2 | 96.8 | 30.4 | > 100 | 39 | > 100 | 18.1 | 27.9 | 10.9 | 76.5 | 27.3 | 32.8 | 15.4 | 21.2 | 18.5 | 38.2 |
| CN(C)c1ccc(O)c2c1C[C@H]1C[C@H]3[C@H](N(C)C)C(=O)C(C(N)=O)=C(O)[C@@]3(O)C(=O)C1=C2O | 22.3 | 43.6 | 26.9 | > 100 | 33.3 | > 100 | 14.7 | 79.8 | 31.9 | > 100 | 4.45 | 10.5 | 3.6 | 5.93 | 7.51 | 5.29 | 3.38 | 3.65 | 3.64 | 4.8 |
| COCCNC(=O)c1ccc(-c2nc3ccc4[nH]ncc4c3c3c2CCCC3)cc1 | 16.2 | 73 | 78.9 | > 100 | 18 | 16.3 | 26.3 | 5.74 | > 100 | 91.7 | 2.12 | 2.15 | 1.59 | 3.79 | 2.74 | 1.97 | 3.39 | 1.58 | 2.88 | 2.61 |
| COc1cc(/C=C/C(=O)c2c(C)n([O-])c3ccc(Cl)cc3[n+]2=O)cc(OC)c1OC | > 100 | 96.6 | 3.53 | 77 | 35.3 | > 100 | > 100 | 5.47 | > 100 | > 100 | 33.1 | 14.7 | 0.0718 | 21.2 | 14.1 | 40.5 | 68 | 1.55 | 90.2 | 67.6 |
| OC(CNc1ccnc2cc(Cl)ccc12)CNC1CCCCC1 (stereo not given) | 24.8 | 18.7 | 7.12 | 75.5 | 3.8 | 18.7 | 3.34 | 11 | 16.7 | 48.4 | 11.8 | 4.21 | 1.42 | 22.4 | 1.89 | 4.54 | 1.77 | 2.22 | 4.57 | 12 |
| O=C(N/N=C\c1ccc(N(CCCl)CCCl)cc1Cl)c1cccnc1 | 56.6 | 62.3 | 69.1 | > 100 | 64.2 | 20 | 34.8 | 52.9 | 52.6 | > 84.4 | 15.1 | 14.1 | 15.1 | 45.1 | 21.4 | 2.8 | 13.3 | 14.6 | 16.1 | 24.1 |
| CCOC1C=CCCO1 (stereo not given) | > 100 | > 100 | > 100 | > 100 | > 100 | > 100 | > 100 | 38.8 | > 100 | > 100 | – | – | – | – | – | – | – | – | – | – |
